The results in this text go back to patent publication US12194051B2, “5-azaindazole derivatives as adenosine receptor antagonists” (MERCK PATENT GMBH, priority 2018, dated 2025).

One experiment addresses T1, human A2B receptors (Homo sapiens, UniProt P29275).
T1 construct: expressed in transfected cells; host or cells: HEK293
T1 sequence (P29275 1-332): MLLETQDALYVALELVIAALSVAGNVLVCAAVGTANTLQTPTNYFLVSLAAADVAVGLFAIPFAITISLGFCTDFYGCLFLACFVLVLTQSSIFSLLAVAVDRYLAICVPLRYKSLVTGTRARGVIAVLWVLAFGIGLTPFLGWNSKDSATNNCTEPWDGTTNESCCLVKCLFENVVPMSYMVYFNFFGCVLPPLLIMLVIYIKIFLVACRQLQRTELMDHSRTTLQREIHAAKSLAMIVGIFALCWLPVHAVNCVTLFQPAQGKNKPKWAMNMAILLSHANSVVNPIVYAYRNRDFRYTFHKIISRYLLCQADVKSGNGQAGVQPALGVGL
Kind of experiment: Inhibition of human A2B receptor in recombinant HEK293 cells, cAMP quantification (HTRF). As to conditions: read-out: A2B (Category). The experiment is classed as cell-based. The method, then:
(§1) The functional activities of human A2A and A2B receptors were determined by quantification of cAMP, being the second messenger for adenosine receptors.
(§2) After a 15 min incubation, HTRF reagents (cAMP dynamic 2, Cis Bio) were added and the cellular cAMP levels were determined using the ENVISION (Perkin Elmer) plate reader.

The target of another experiment is T2, human A2A receptors (Homo sapiens, UniProt P29274).
T2 construct: expressed in transfected cells; host or cells: HEK293
Put plainly: Inhibition of human A2A receptor in recombinant HEK293 cells, cAMP quantification (HTRF). The experiment is classed as cell-based. As to conditions: read-out: A2A (Category). On the procedure:
as §1, §2
For orientation: TR-FRET usually uses a lanthanide donor and a delayed reading to cut background.

T2 sequence (P29274 whole entry): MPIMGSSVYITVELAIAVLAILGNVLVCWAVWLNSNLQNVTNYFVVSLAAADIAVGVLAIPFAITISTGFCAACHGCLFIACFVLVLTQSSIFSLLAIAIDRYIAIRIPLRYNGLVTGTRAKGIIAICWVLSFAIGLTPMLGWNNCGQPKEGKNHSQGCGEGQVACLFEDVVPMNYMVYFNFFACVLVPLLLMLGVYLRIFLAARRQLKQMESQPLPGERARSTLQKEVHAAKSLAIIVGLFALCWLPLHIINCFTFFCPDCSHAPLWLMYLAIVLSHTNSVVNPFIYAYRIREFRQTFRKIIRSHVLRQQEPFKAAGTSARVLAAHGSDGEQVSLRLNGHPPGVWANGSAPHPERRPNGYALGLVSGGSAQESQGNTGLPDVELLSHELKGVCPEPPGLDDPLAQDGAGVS

On to `O=C(c1cc2c(cn1)c(Nc1cc(F)ccn1)nn2CC(F)(F)F)N1CCCOCC1` [Compound 46, [3-[(4-fluoro-2-pyridyl)amino]-1-(2,2,2-trifluoroethyl)pyrazolo[4,3-c]pyridin-6-yl]-(1,4-oxazepan-4-yl)methanone], for which the IC50 on human A2B receptors and on human A2A receptors was under 100 nM each time.

Consider `O=C(c1cc2c(cn1)c(Nc1ccccc1F)nn2CC(F)(F)F)N1CCCOCC1` [Compound 1, [3-(2-fluoroanilino)-1-(2,2,2-trifluoroethyl)pyrazolo[4,3-c]pyridin-6-yl]-(1,4-oxazepan-4-yl)methanone], for which the IC50 at human A2B receptors was under 1000 nM; on human A2A receptors, under 100 nM.

In the case of `O=C(c1cc2c(cn1)c(Nc1cccc(Cl)c1)nn2CC(F)(F)F)N1CCCOCC1` [Compound 37, [3-(3-chloroanilino)-1-(2,2,2-trifluoroethyl)pyrazolo[4,3-c]pyridin-6-yl]-(1,4-oxazepan-4-yl)methanone], the IC50 at human A2B receptors is under 1000 nM; at human A2A receptors, under 100 nM.

For `CS(=O)(=O)Cn1nc(Nc2ccc(F)cn2)c2cnc(C(=O)N3CCCOCC3)cc21` [Compound 77, [3-(5-Fluoro-pyridin-2-ylamino)-1-methanesulfonylmethyl-1H-pyrazolo[4,3-c]pyridin-6-yl]-[1,4]oxazepan-4-yl-methanone], the IC50 at human A2B receptors and at human A2A receptors was under 100 nM throughout.

Regarding `CC(C)(O)C[C@H]1CCCN1C(=O)c1cc2c(cn1)c(Nc1ccc(F)cn1)nn2CC(F)(F)F` [Compound 125, [3-[(5-fluoro-2-pyridyl)amino]-1-(2,2,2-trifluoroethyl)pyrazolo[4,3-c]pyridin-6-yl]-[(2R)-2-(2-hydroxy-2-methyl-propyl)pyrrolidin-1-yl]methanone], the IC50 on human A2B receptors was under 1000 nM; on human A2A receptors, under 100 nM.

As to `COc1cc(Nc2nn(CC(F)(F)F)c3cc(C(=O)N4CCCOCC4)ncc23)ncc1F` [Compound 81, [3-[(5-fluoro-4-methoxy-2-pyridyl)amino]-1-(2,2,2-trifluoroethyl)pyrazolo[4,3-c]pyridin-6-yl]-(1,4-oxazepan-4-yl)methanone], the IC50 at human A2B receptors was under 1000 nM; at human A2A receptors, under 100 nM.

On to `[2H]C1([2H])COCCN(C(=O)c2cc3c(cn2)c(Nc2cc(F)ccn2)nn3CC(F)(F)F)C1` [Compound 60, (6,6-dideuterio-1,4-oxazepan-4-yl)-[3-[(4-fluoro-2-pyridyl)amino]-1-(2,2,2-trifluoroethyl)pyrazolo[4,3-c]pyridin-6-yl]methanone], for which the IC50 on human A2B receptors and on human A2A receptors was under 100 nM in each case.

`O=C(c1cc2c(cn1)c(Nc1ccccn1)nn2CC(F)(F)F)N1CCC(O)CC1` [Compound 24, (4-hydroxy-1-piperidyl)-[3-(2-pyridylamino)-1-(2,2,2-trifluoroethyl)pyrazolo[4,3-c]pyridin-6-yl]methanone]: the IC50 on human A2B receptors and on human A2A receptors was under 100 nM each time.

Consider `Cc1ccnc(Nc2nn(CC(F)(F)F)c3cc(C(=O)N4CCCOCC4)ncc23)c1` [Compound 68, [3-[(4-methyl-2-pyridyl)amino]-1-(2,2,2-trifluoroethyl)pyrazolo[4,3-c]pyridin-6-yl]-(1,4-oxazepan-4-yl)methanone], for which the figures for the IC50 on human A2B receptors and at human A2A receptors were under 1000 nM and under 100 nM, respectively.

As for `O=C(c1cc2c(cn1)c(Nc1ccc(F)c(Cl)c1)nn2CC(F)(F)F)N1CCCOCC1` [Compound 18, [3-(3-chloro-4-fluoroanilino)-1-(2,2,2-trifluoroethyl)pyrazolo[4,3-c]pyridin-6-yl]-(1,4-oxazepan-4-yl)methanone], the IC50 on human A2B receptors was under 1000 nM; at human A2A receptors, under 100 nM.

As for `O=C(c1cc2c(cn1)c(Nc1ccc(F)cn1)nn2CC(F)(F)F)N1CCC[C@H](F)C1` [Compound 100, [(3S)-3-fluoro-piperidin-1-yl]-[3-(5-Fluoro-pyridin-2-ylamino)-1-(2,2,2-trifluoro-ethyl)-1H-pyrazolo[4,3-c]pyridin-6-yl]methanone], the results for the IC50 on human A2B receptors and on human A2A receptors were under 1000 nM and under 100 nM, respectively.

As to `O=C(c1cc2c(cn1)c(Nc1ccccn1)nn2CC(F)(F)F)N1[C@@H]2CC[C@H]1C[C@@H](O)C2` [Compound 127, (3-endo-hydroxy-8-azabicyclo[3.2.1]octan-8-yl)-[3-(2-pyridylamino)-1-(2,2,2-trifluoroethyl)pyrazolo[4,3-c]pyridin-6-yl]methanone], the IC50 at human A2B receptors and at human A2A receptors was under 100 nM each time.

Regarding `O=C(c1cc2c(cn1)c(Nc1cc(F)ccn1)nn2CC(F)(F)F)N1CCOC[C@@H](F)C1` [Compound 110, [(6S)-6-fluoro-1,4-oxazepan-4-yl]-[3-(4-fluoro-pyridin-2-ylamino)-1-(2,2,2-trifluoro-ethyl)-1H-pyrazolo[4,3-c]pyridin-6-yl]-methanone], the IC50 at human A2B receptors and on human A2A receptors was under 100 nM each time.

Consider `COc1cccc(Nc2nn(CC(F)(F)F)c3cc(C(=O)N4CCCOCC4)ncc23)c1` [Compound 7, [3-(3-methoxyanilino)-1-(2,2,2-trifluoroethyl)pyrazolo[4,3-c]pyridin-6-yl]-(1,4-oxazepan-4-yl)methanone], for which the IC50 at human A2B receptors and on human A2A receptors was under 100 nM in each case.

Consider `O=C(c1cc2c(cn1)c(Nc1ccc(F)cn1)nn2CC(F)(F)F)N1CCC[C@H](O)C1` [Compound 98, [(3S)-3-hydroxy-piperidin-1-yl]-[3-(5-Fluoro-pyridin-2-ylamino)-1-(2,2,2-trifluoro-ethyl)-1H-pyrazolo[4,3-c]pyridin-6-yl]methanone], for which the IC50 on human A2B receptors was under 1000 nM; on human A2A receptors, under 100 nM.

For the compound `[2H]C1([2H])COCCN(C(=O)c2cc3c(cn2)c(Nc2cccc(F)c2)nn3CC(F)(F)F)C1` [Compound 40, (6,6-dideuterio-1,4-oxazepan-4-yl)-[3-(3-fluoroanilino)-1-(2,2,2-trifluoroethyl)pyrazolo[4,3-c]pyridin-6-yl]methanone], the IC50 at human A2B receptors and at human A2A receptors was under 100 nM each time.

As to `O=C(c1cc2c(cn1)c(Nc1ccncn1)nn2CC(F)(F)F)N1CCCOCC1` [Compound 73, [1,4]Oxazepan-4-yl-[3-(pyrimidin-4-ylamino)-1-(2,2,2-trifluoro-ethyl)-1H-pyrazolo[4,3-c]pyridin-6-yl]-methanone], the IC50 at human A2B receptors is under 1000 nM; at human A2A receptors it was under 100 nM.

Turning to `[2H]C1([2H])COCCN(C(=O)c2cc3c(cn2)c(Nc2ccc(F)cn2)nn3CC(F)(F)F)C1` [Compound 91, (6,6-dideuterio-1,4-oxazepan-4-yl)-[3-[(5-fluoro-2-pyridyl)amino]-1-(2,2,2-trifluoroethyl)pyrazolo[4,3-c]pyridin-6-yl]methanone], the IC50 at human A2B receptors and on human A2A receptors was under 100 nM each time.

Take `O=C(c1cc2c(cn1)c(Nc1ccc(F)cn1)nn2CC(F)(F)F)N1CCC(O)CC1` [Compound 94, [3-[(5-fluoro-2-pyridyl)amino]-1-(2,2,2-trifluoroethyl)pyrazolo[4,3-c]pyridin-6-yl]-(4-hydroxypiperidin-1-yl)methanone]: the IC50 at human A2B receptors and on human A2A receptors was under 100 nM each time.

Regarding `CC1(O)CCN(C(=O)c2cc3c(cn2)c(Nc2ccc(F)cn2)nn3CC(F)(F)F)CC1` [Compound 95, [3-(5-Fluoro-pyridin-2-ylamino)-1-(2,2,2-trifluoro-ethyl)-1H-pyrazolo[4,3-c]pyridin-6-yl]-(4-hydroxy-4-methyl-piperidin-1-yl)-methanone], the IC50 at human A2B receptors was under 1000 nM; on human A2A receptors, under 100 nM.

As to `O=C(c1cc2c(cn1)c(Nc1ccccn1)nn2CC(F)(F)F)N1CC2CCC(C1)O2` [Compound 47, 8-oxa-3-azabicyclo[3.2.1]octan-3-yl-[3-(2-pyridylamino)-1-(2,2,2-trifluoroethyl)pyrazolo[4,3-c]pyridin-6-yl]methanone], the IC50 on human A2B receptors and at human A2A receptors was under 100 nM in each case.

For the compound `COc1ccc(Nc2nn(CC(F)(F)F)c3cc(C(=O)N4CCCOCC4)ncc23)cc1` [Compound 11, [3-(4-methoxyanilino)-1-(2,2,2-trifluoroethyl)pyrazolo[4,3-c]pyridin-6-yl]-(1,4-oxazepan-4-yl)methanone], the IC50 was under 1000 nM at human A2B receptors and under 100 nM on human A2A receptors.

Turning to `[2H]C1([2H])COCCN(C(=O)c2cc3c(cn2)c(Nc2ccccn2)nn3CC(F)(F)F)C1` [Compound 59, (6,6-dideuterio-1,4-oxazepan-4-yl)-[3-(2-pyridylamino)-1-(2,2,2-trifluoroethyl)pyrazolo[4,3-c]pyridin-6-yl]methanone], the IC50 on human A2B receptors and on human A2A receptors was under 100 nM in each case.

In the case of `O=C(c1cc2c(cn1)c(Nc1nccs1)nn2CC(F)(F)F)N1CCCOCC1` [Compound 85, [1,4]Oxazepan-4-yl-[3-(thiazol-2-ylamino)-1-(2,2,2-trifluoro-ethyl)-1H-pyrazolo[4,3-c]pyridin-6-yl]methanone], the IC50 on human A2B receptors and at human A2A receptors was under 100 nM in each case.

Consider `O=C(c1cc2c(cn1)c(Nc1cccc(F)c1)nn2CC(F)(F)F)N1CCCOCC1` [Compound 6, [3-(3-fluoroanilino)-1-(2,2,2-trifluoroethyl)pyrazolo[4,3-c]pyridin-6-yl]-(1,4-oxazepan-4-yl)methanone], for which the IC50 on human A2B receptors and at human A2A receptors was under 100 nM in each case.

Take `O=C(c1cc2c(cn1)c(Nc1ccncn1)nn2CC(F)(F)F)N1CCC(O)CC1` [Compound 76, (4-Hydroxy-piperidin-1-yl)-[3-(pyrimidin-4-ylamino)-1-(2,2,2-trifluoro-ethyl)-1H-pyrazolo[4,3-c]pyridin-6-yl]-methanone]: the IC50 on human A2B receptors was under 1000 nM; on human A2A receptors it was under 100 nM.
